Test [1] deals with T1, human factor XIa (Homo sapiens, UniProt P03951).
T1 construct: purchased Kordia
The experiment in a line: Measurement of FXIa inhibition (fluorogenic peptide substrate Boc-Glu(OBzl)-Ala-Arg-AMC). The class given is biochemical. Conditions: factor XIa from Kordia 0.45 nM, 15 min pre-incubation, 30 min at 22° C., fluorescence.

In test [2] the test system is human and animal plasma. The experiment in a line: Determination of anticoagulatory activity: activated partial thromboplastin time (aPTT) in plasma. To be noted: concentration of test substance which brings about a 1.5-fold extension of the aPTT; plasma in vitro, C.K. Prest kit. The protocol:
The anticoagulatory activity of the test substances is determined in vitro in human and animal plasma (for example mouse, rat, rabbit, pig and dog plasma). To this end, blood is drawn off in a mixing ratio of sodium citrate/blood of 1:9 using a 0.11 molar sodium citrate solution as receiver. Immediately after the blood has been drawn off, it is mixed thoroughly and centrifuged at about 4000 g for 15 minutes. The supernatant is pipetted off.
The activated partial thromboplastin time (aPTT) is determined in the presence of varying concentrations of test substance or the corresponding solvent using a commercial test kit (C.K. Prest from Diagnostica Stago). The test compounds are incubated with the plasma and the PTT reagent (cephalin, kaolin) at 37° C. for 3 minutes. Coagulation is then started by addition of a 25 mM aqueous calcium chloride solution, and the time when coagulation occurs is determined. The concentration of test substance which brings about a 1.5-fold extension of the aPTT is determined.

Counter-ions that a name gives are not always drawn.

T1 sequence (P03951 388-625 limits assumed): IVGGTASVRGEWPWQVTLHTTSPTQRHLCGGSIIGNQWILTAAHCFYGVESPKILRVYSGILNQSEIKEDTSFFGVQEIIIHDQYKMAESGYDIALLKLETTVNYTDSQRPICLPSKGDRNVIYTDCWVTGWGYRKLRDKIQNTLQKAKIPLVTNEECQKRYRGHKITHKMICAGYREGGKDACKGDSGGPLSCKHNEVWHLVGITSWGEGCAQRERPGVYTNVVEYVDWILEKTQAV
T1 sequence (P03951 19-387 partner limits assumed): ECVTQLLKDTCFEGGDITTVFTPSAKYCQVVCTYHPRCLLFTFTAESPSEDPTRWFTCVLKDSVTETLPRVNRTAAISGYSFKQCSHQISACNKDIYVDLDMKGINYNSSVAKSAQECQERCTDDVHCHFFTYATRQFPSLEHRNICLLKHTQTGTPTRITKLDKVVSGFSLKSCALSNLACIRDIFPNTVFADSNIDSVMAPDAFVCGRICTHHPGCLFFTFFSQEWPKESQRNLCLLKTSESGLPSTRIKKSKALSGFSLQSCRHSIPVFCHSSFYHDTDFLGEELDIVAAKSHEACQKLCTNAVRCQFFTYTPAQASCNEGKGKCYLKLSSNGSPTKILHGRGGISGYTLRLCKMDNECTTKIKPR

As to `COc1ccc(-c2cccc(C[C@H](NC(=O)[C@H]3CC[C@H](CN)CC3)C(=O)Nc3ccc(-c4nnn[nH]4)cc3)c2)cc1S(=O)(=O)N1CCOCC1` [Example 8, trans-4-(Aminomethyl)-N-[(2S)-3-[4′-methoxy-3′-(morpholin-4-ylsulphonyl)biphenyl-3-yl]-1-oxo-1-{[4-(1H-tetrazol-5-yl)phenyl]amino}propan-2-yl]cyclohexanecarboxamide hydrochloride], in test [1], the IC50 worked out at 3.8 nM. This molecule also yielded an aPTT in test [2] of 0.41 µmol/L.

For the molecule `CCN(CC)CCNC(=O)c1cccc(-c2cccc(C[C@H](NC(=O)[C@H]3CC[C@H](CN)CC3)C(=O)Nc3ccc(-c4nnc(Cl)[nH]4)cc3)c2)c1` [Example 40, 3′-[(2S)-2-({[trans-4-(Aminomethyl)cyclohexyl]carbonyl}amino)-3-{[4-(3-chloro-4H-1,2,4-triazol-5-yl)phenyl]amino}-3-oxopropyl]-N-[2-(diethylamino)ethyl]biphenyl-3-carboxamide hydrochloride], the IC50 in test [1] was determined as 8.3 nM. For the same molecule, the aPTT in test [2] amounted to 0.19 µmol/L.

For the molecule `NC[C@H]1CC[C@H](C(=O)N[C@@H](Cc2cccc(-c3cnc(N4CCOCC4)nc3)c2)C(=O)Nc2ccc(-c3nnc(Cl)[nH]3)cc2)CC1` [Example 92, N-alpha-{[trans-4-(Aminomethyl)cyclohexyl]carbonyl}-N-[4-(3-chloro-4H-1,2,4-triazol-5-yl)phenyl]-3-[2-(morpholin-4-yl)pyrimidin-5-yl]-L-phenylalaninamide hydrochloride], in test [1], the IC50 was 3.6 nM. This molecule showed an aPTT in test [2] of 0.37 µmol/L.

In test [1], `Cc1cnccc1-c1cccc(C[C@H](NC(=O)[C@H]2CC[C@H](CN)CC2)C(=O)Nc2ccc(-c3nnn[nH]3)cc2)c1` [Example 80, N-alpha-{[trans-4-(Aminomethyl)cyclohexyl]carbonyl}-3-(3-methylpyridin-4-yl)-N-[4-(1H-tetrazol-5-yl)phenyl]-L-phenylalaninamide hydrochloride] returned an IC50 of 2.4 nM. In test [2], this molecule showed an aPTT of 0.25 µmol/L.

`CN(C)CCCOc1ccc(-c2cccc(C[C@H](NC(=O)[C@H]3CC[C@H](CN)CC3)C(=O)Nc3ccc(-c4nc(C(F)(F)C(F)(F)C(F)(F)C(=O)O)n[nH]4)cc3)c2)cn1` [Example 108, 4-(5-{4-[(N-{[trans-4-(Aminomethyl)cyclohexyl]carbonyl}-3-{6-[3-(dimethylamino)propoxy]pyridin-3-yl}-L-phenylalanyl)amino]phenyl}-1H-1,2,4-triazol-3-yl)-2,2,3,3,4,4-hexafluorobutanoic acid hydrochloride] came in with an IC50 in test [1] of 5.5 nM. In test [2], this molecule came in with an aPTT of 0.25 µmol/L.

In test [1], `Cc1ccc(C(=O)NC2C3CNCC32)cc1-c1cccc(C[C@H](NC(=O)C2CCC(CN)CC2)C(=O)Nc2ccc(-c3nnn[nH]3)cc2)c1` (stereo partly drawn) [Example 16, 3′-[(2S)-2-({[trans-4-(Aminomethyl)cyclohexyl]carbonyl}amino)-3-oxo-3-{[4-(1H-tetrazol-5-yl)phenyl]amino}propyl]-N-(3-azabicyclo[3.1.0]hex-6-yl)-6-methylbiphenyl-3-carboxamide hydrochloride] registered a half-inhibitory concentration (IC50) of 5.5 nM. The aPTT in test [2] amounted to 0.25 µmol/L.

Molecule `Cc1ccc(S(=O)(=O)N2CCOCC2)cc1-c1cccc(C[C@H](NC(=O)[C@H]2CC[C@H](CN)CC2)C(=O)Nc2ccc(-c3noc(=O)[nH]3)cc2)c1` [Example 52, trans-4-(Aminomethyl)-N-[(2S)-3-[2′-methyl-5′-(morpholin-4-ylsulphonyl)biphenyl-3-yl]-1-oxo-1-{[4-(5-oxo-4,5-dihydro-1,2,4-oxadiazol-3-yl)phenyl]amino}propan-2-yl]cyclohexanecarboxamide hydrochloride] had an IC50 in test [1] of 1.8 nM. Besides, the aPTT in test [2] worked out at 0.06 µmol/L.

With `Cc1ccc(C[C@H](NC(=O)[C@H]2CC[C@H](CN)CC2)C(=O)Nc2ccc(-c3nnn[nH]3)cc2)cc1-c1cccc(C(=O)NC2CCN(C(C)C)CC2)c1` [Example 19, 5′-[(2S)-2-({[trans-4-(Aminomethyl)cyclohexyl]carbonyl}amino)-3-oxo-3-{[4-(1H-tetrazol-5-yl)phenyl]amino}propyl]-2′-methyl-N-[1-(propan-2-yl)piperidin-4-yl]biphenyl-3-carboxamide hydrochloride], the IC50 in test [1] worked out at 6 nM. In test [2], this molecule gave an aPTT of 0.14 µmol/L.

In turn, `COc1ccc(C[C@H](NC(=O)[C@H]2CC[C@H](CN)CC2)C(=O)Nc2ccc(-c3nn[nH]n3)cc2)cc1-c1ccc(C(=O)NC2CCNCC2)cc1C` [Example 56, 5′-[(2S)-2-({[trans-4-(Aminomethyl)cyclohexyl]carbonyl}amino)-3-oxo-3-{[4-(2H-tetrazol-5-yl)phenyl]amino}propyl]-2′-methoxy-2-methyl-N-(piperidin-4-yl)biphenyl-4-carboxamide hydrochloride] showed an IC50 in test [1] of 15 nM. In test [2], this molecule displayed an aPTT of 0.28 µmol/L.

Take `CN(C)CCCOc1ccc(-c2cccc(C[C@H](NC(=O)[C@H]3CC[C@H](CN)CC3)C(=O)Nc3ccc(-c4nnn[nH]4)cc3)c2)cn1` [Example 59, N-alpha-{[trans-4-(Aminomethyl)cyclohexyl]carbonyl}-3-{6-[3-(dimethylamino)propoxy]pyridin-3-yl}-N-[4-(1H-tetrazol-5-yl)phenyl]-L-phenylalaninamide hydrochloride]: the IC50 in test [1] amounted to 7.2 nM. The molecule further registered an aPTT in test [2] of 0.19 µmol/L.

In test [1], `CN(C)CCCOc1ccc(-c2cccc(C[C@H](NC(=O)[C@H]3CC[C@H](CN)CC3)C(=O)Nc3ccc4[nH]c(=O)[nH]c4c3)c2)cn1` [Example 100, N-alpha-{[trans-4-(Aminomethyl)cyclohexyl]carbonyl}-3-{6-[3-(dimethylamino)propoxy]pyridin-3-yl}-N-(2-oxo-2,3-dihydro-1H-benzimidazol-5-yl)-L-phenylalaninamide hydrochloride] displayed an IC50 of 59 nM. In addition, the aPTT in test [2] is 0.34 µmol/L.

`Cc1ccc2[nH]ncc2c1-c1cccc(C[C@H](NC(=O)[C@H]2CC[C@H](CN)CC2)C(=O)Nc2ccc(-c3noc(=O)[nH]3)cc2)c1` [Example 87, N-alpha-{[trans-4-(Aminomethyl)cyclohexyl]carbonyl}-3-(5-methyl-1H-indazol-4-yl)-N-[4-(5-oxo-4,5-dihydro-1,2,4-oxadiazol-3-yl)phenyl]-L-phenylalaninamide hydrochloride]: in test [1], the concentration for half-maximal inhibition (IC50) was found to be 3.5 nM. Further, in test [2], the aPTT stood at 0.49 µmol/L.

For `CN(C)c1ncc(-c2cccc(C[C@H](NC(=O)[C@H]3CC[C@H](CN)CC3)C(=O)Nc3ccc(-c4nnn[nH]4)cc3)c2)c(OCc2ccccc2)n1` [Example 78, N-alpha-{[trans-4-(Aminomethyl)cyclohexyl]carbonyl}-3-[4-(benzyloxy)-2-(dimethylamino)pyrimidin-5-yl]-N-[4-(1H-tetrazol-5-yl)phenyl]-L-phenylalaninamide hydrochloride], in test [1], the IC50 came out at 2.3 nM. The same molecule showed an aPTT in test [2] of 0.19 µmol/L.

On to `Cc1cc(C(=O)NC2CCC(N(C)C)CC2)ccc1-c1cccc(C[C@H](NC(=O)[C@H]2CC[C@H](CN)CC2)C(=O)Nc2ccc(-c3nnn[nH]3)c(F)c2)c1` (stereo partly drawn) [Example 64, 3′-[(2S)-2-({[trans-4-(Aminomethyl)cyclohexyl]carbonyl}amino)-3-{[3-fluoro-4-(1H-tetrazol-5-yl)phenyl]amino}-3-oxopropyl]-N-[4-(dimethylamino)cyclohexyl]-2-methylbiphenyl-4-carboxamide hydrochloride], for which the IC50 in test [1] came out at 5.2 nM. For the same molecule, the aPTT in test [2] is 0.12 µmol/L.

In test [1], `CN1CCN(C(=O)c2cccc(-c3cccc(C[C@H](NC(=O)[C@H]4CC[C@H](CN)CC4)C(=O)Nc4ccc(-c5nnn[nH]5)cc4)c3)c2)CC1` [Example 31, trans-4-(Aminomethyl)-N-[(2S)-3-{3′-[(4-methylpiperazin-1-yl)carbonyl]biphenyl-3-yl}-1-oxo-1-{[4-(1H-tetrazol-5-yl)phenyl]amino}propan-2-yl]cyclohexanecarboxamide hydrochloride] registered an IC50 of 7 nM. The same molecule gave an aPTT in test [2] of 0.36 µmol/L.

As to `Cc1ccc(C(=O)NCCOCCOCCO)cc1-c1cccc(C[C@H](NC(=O)[C@H]2CC[C@H](CN)CC2)C(=O)Nc2ccc(-c3nnn[nH]3)cc2)c1` [Example 21, 3′-[(2S)-2-({[trans-4-(Aminomethyl)cyclohexyl]carbonyl}amino)-3-oxo-3-{[4-(1H-tetrazol-5-yl)phenyl]amino}propyl]-N-{2-[2-(2-hydroxyethoxy)ethoxy]ethyl}-6-methylbiphenyl-3-carboxamide hydrochloride], the IC50 in test [1] came to 2.3 nM. The molecule also yielded an aPTT in test [2] of 0.19 µmol/L.

As to `Cc1ccc(N)cc1-c1cccc(C[C@H](NC(=O)[C@H]2CC[C@H](CN)CC2)C(=O)Nc2ccc(-c3nnn[nH]3)cc2)c1` [Example 103, trans-4-(Aminomethyl)-N-[(2S)-3-(5′-amino-2′-methylbiphenyl-3-yl)-1-oxo-1-{[4-(1H-tetrazol-5-yl)phenyl]amino}propan-2-yl]cyclohexanecarboxamide hydrochloride], the IC50 in test [1] came out at 3.3 nM. The aPTT in test [2] amounted to 0.1 µmol/L.

In turn, `Cc1ccc2[nH]ncc2c1-c1cccc(C[C@H](NC(=O)[C@H]2CC[C@H](CN)CC2)C(=O)Nc2ccc(-c3nnn[nH]3)cc2)c1` [Example 83, N-alpha-{[trans-4-(Aminomethyl)cyclohexyl]carbonyl}-3-(5-methyl-1H-indazol-4-yl)-N-[4-(1H-tetrazol-5-yl)phenyl]-L-phenylalaninamide hydrochloride] registered an IC50 in test [1] of 1.3 nM. Moreover, the aPTT in test [2] turned out to be 0.17 µmol/L.

The term IC50 denotes the concentration at which inhibition is half-maximal. A lower IC50 goes with greater potency.

(Values after patent US20160244437A1, “SUBSTITUTED PHENYLALANINE DERIVATIVES” (BAYER PHARMA AKTIENGESELLSCHAFT, priority 2013, published 2016).)
